Measured values taken from patent publication US10435401B2, “Pesticidally active tetracyclic derivatives with sulphur containing substituents” (Syngenta Participations AG, priority 2014, dated 2019).

Key:
Assay type in all cases: in vivo
[1] = tested on: Frankliniella occidentalis (Western Flower Thrips); test: Frankliniella occidentalis feeding/contact activity; settings: foliar, 168 h, application rate of 200 ppm, population of mixed ages on sprayed sunflower leaf discs, 7 days after infestation
Experimental: Example B4: Frankliniella occidentalis (Western Flower Thrips): Feeding/Contact Activity
Sunflower leaf discs were placed on agar in 24-well microtiter plates and sprayed with aqueous test solutions prepared from […] stock solutions. After drying the leaf discs were infested with a Frankliniella population of mixed ages. The samples were assessed for mortality 7 days after infestation.

[2] = tested on: Myzus persicae (Green Peach Aphid); test: Myzus persicae systemic activity; settings: 144 h, test rate of 24 ppm, roots of infested pea seedlings in test solution, 6 days
Experimental: Example B6: Myzus persicae (Green Peach Aphid): Systemic Activity
Roots of pea seedlings infested with an aphid population of mixed ages were placed directly in the aqueous test solutions prepared from 10′000 ppm DMSO stock solutions. The samples were assessed for mortality 6 days after placing seedlings in test solutions.

[3] = tested on: Diabrotica balteata (Corn Root Worm); test: Diabrotica balteata feeding/contact activity; settings: 96 h, application rate of 200 ppm, L2 larvae on sprayed maize sprouts, 4 days after infestation
Experimental: Example B2: Diabrotica balteata (Corn Root Worm): Feeding/Contact Activity
Maize sprouts, placed on an agar layer in 24-well microtiter plates were treated with aqueous test solutions prepared from 10′000 ppm DMSO stock solutions by spraying. After drying, the plates were infested with L2 larvae (6 to 10 per well). The samples were assessed for mortality and growth inhibition in comparison to untreated samples 4 days after infestation.

[4] = tested on: Aedes aegypti (Yellow Fever Mosquito); test: whole plant or invertebrate; settings: 48 h, test rate of 5 ppm, L2 larvae in 96-well plates, 2 days incubation, read-out: effect in at least one of the two categories (mortality or growth inhibition)
Experimental: Example B12: Aedes aegypti (Yellow Fever Mosquito): Feeding Contact Activity
10 to 15 Aedes larvae (L2) together with a nutrition mixture were placed in 96-well microtiter plates. Test compounds were pipetted into the wells. After an incubation period of 2 days insects were assessed for mortality and growth inhibition.

[5] = tested on: Myzus persicae (Green Peach Aphid); test: Myzus persicae intrinsic activity; settings: 120 h, test rate of 12 ppm, compound in sucrose solution under Parafilm, 5 days after infestation
Source text: Example B7: Myzus persicae (Green Peach Aphid): Intrinsic Activity
Test compounds from 10′000 ppm DMSO stock solutions were applied by pipette into 24-well microtiter plates and mixed with sucrose solution. The plates were closed with a stretched Parafilm. A plastic stencil with 24 holes was placed onto the plate and infested pea seedlings were placed directly on the Parafilm. The infested plate was closed with a gel blotting paper and another plastic stencil and then turned upside down. The samples were assessed for mortality 5 days after infestation.

[6] = tested on: Plutella xylostella (Diamond Back Moth); test: Plutella xylostella feeding/contact activity; settings: 120 h, application rate of 200 ppm, L2 larvae on treated artificial diet, 5 days after infestation, read-out: effect in at least one of the two categories (mortality or growth inhibition)
Experimental: Example B8: Plutella xylostella (Diamond Back Moth): Feeding/Contact Activity
24-well microtiter plates with artificial diet were treated with aqueous test solutions prepared from 10′000 ppm DMSO stock solutions by pipetting. After drying, the plates were infested with L2 larvae (10 to 15 per well). The samples were assessed for mortality and growth inhibition in comparison to untreated samples 5 days after infestation.

[7] = tested on: Myzus persicae (Green Peach Aphid); test: Myzus persicae feeding/contact activity; settings: foliar, 144 h, application rate of 200 ppm, aphid population of mixed ages on sprayed sunflower leaf discs, 6 days after infestation
Experimental: Example B5: Myzus persicae (Green Peach Aphid): Feeding/Contact Activity
Sunflower leaf discs were placed on agar in a 24-well microtiter plate and sprayed with aqueous test solutions prepared from 10′000 ppm DMSO stock solutions. After drying, the leaf discs were infested with an aphid population of mixed ages. The samples were assessed for mortality 6 days after infestation.

[8] = tested on: Spodoptera littoralis (Egyptian Cotton Leaf Worm); test: Spodoptera littoralis systemic activity; settings: 144 h, test rate of 12.5 ppm, compound in agar taken up by lettuce roots, 6 days after infestation, read-out: effect in at least one of the three categories (mortality, anti-feedancy, or growth inhibition)
Experimental: Example B10: Spodoptera littoralis (Egyptian Cotton Leaf Worm): Systemic Activity
Test compounds were applied by pipette from 10′000 ppm DMSO stock solutions into 24-well plates and mixed with agar. […] […] […] Spodoptera eggs were pipetted through a plastic stencil on a humid gel blotting paper and the plate closed with it. The samples were assessed for mortality, anti-feedant effect and growth inhibition in comparison to untreated samples 6 days after infestation.

[9] = tested on: Bemisia tabaci (Cotton White Fly); test: Bemisia tabaci feeding/contact activity; settings: foliar, 144 h, application rate of 200 ppm, adult white flies on sprayed cotton leaf discs, 6 days after incubation
Experimental: Example B1: Bemisia tabaci (Cotton White Fly): Feeding/Contact Activity
Cotton leaf discs were placed on agar in 24-well microtiter plates and sprayed with aqueous test solutions prepared from 10′000 ppm DMSO stock solutions. After drying the leaf discs were infested with adult white flies. The samples were checked for mortality 6 days after incubation.

[10] = tested on: Spodoptera littoralis (Egyptian Cotton Leaf Worm); test: Spodoptera littoralis feeding/contact activity; settings: foliar, 72 h, application rate of 200 ppm, L1 larvae on sprayed cotton leaf discs, 3 days after infestation, read-out: control (at least one of mortality, anti-feedant effect, growth inhibition)
Experimental: Example B9: Spodoptera littoralis (Egyptian Cotton Leaf Worm): Feeding/Contact Activity
Cotton leaf discs were placed on agar in 24-well microtiter plates and sprayed with aqueous test solutions prepared from 10′000 ppm DMSO stock solutions. After drying the leaf discs were infested with five L1 larvae. The samples were assessed for mortality, anti-feedant effect, and growth inhibition in comparison to untreated samples 3 days after infestation. Control of Spodoptera littoralis by a test sample is when at least one of mortality, anti-feedant effect, and growth inhibition is higher than the untreated sample.

[11] = tested on: Tetranychus urticae (Two-Spotted Spider Mite); test: Tetranychus urticae feeding/contact activity; settings: foliar, 192 h, application rate of 200 ppm, mite population of mixed ages (mobile stages) on sprayed bean leaf discs, 8 days after infestation
Experimental: Example B11: Tetranychus urticae (Two-Spotted Spider Mite):Feeding/Contact Activity
Bean leaf discs on agar in 24-well microtiter plates were sprayed with aqueous test solutions prepared from 10′000 ppm DMSO stock solutions. After drying the leaf discs were infested with a mite population of mixed ages. The samples were assessed for mortality on mixed population (mobile stages) 8 days after infestation.

[12] = tested on: Euschistus heros (Neotropical Brown Stink Bug); test: Euschistus heros feeding/contact activity; settings: 120 h, application rate of 200 ppm, N-2 nymphs on sprayed soybean leaf, 5 days after infestation, read-out: effect in at least one of the two categories (mortality or growth inhibition)
Experimental: Example B3: Euschistus heros (Neotropical Brown Stink Bug): Feeding/Contact Activity
Soybean leaf on agar in 24-well microtiter plates were sprayed with aqueous test solutions prepared from 10′000 ppm DMSO stock solutions. After drying the leaf were infested with N-2 nymphs. The samples were assessed for growth inhibition in comparison to untreated samples 5 days after infestation.

CCS(=O)(=O)c1cc(C(F)(F)F)cnc1-c1nc2cc(C3(C#N)CC3)cnc2n1C [Compound P2, 1-[2-[3-ethylsulfonyl-5-(trifluoromethyl)-2-pyridyl]-3-methyl-imidazo[4,5-b]pyridin-6-yl]cyclopropanecarbonitrile]
≥ 80%: mortality at 200 ppm [1] | mortality at 24 ppm [2] | mortality at 200 ppm [3] | percent effect (mortality or growth inhibition) at 5 ppm [4] | mortality at 12 ppm [5] | percent effect (mortality or growth inhibition) at 200 ppm [6] | mortality at 200 ppm [7] | percent control (mortality, anti-feedancy or growth inhibition) at 12.5 ppm [8] | mortality at 200 ppm [9] | percent control (mortality, anti-feedant effect or growth inhibition) at 200 ppm [10]

CCS(=O)(=O)c1cc(C(F)(F)F)cnc1-c1nc2cc(C3CC3(C)C#N)cnc2n1C (stereo not drawn) [Compound P5, 2-[2-[3-ethylsulfonyl-5-(trifluoromethyl)-2-pyridyl]-3-methyl-imidazo[4,5-b]pyridin-6-yl]-1-methyl-cyclopropanecarbonitrile]
≥ 80%: percent control (mortality, anti-feedant effect or growth inhibition) at 200 ppm [10]

CCS(=O)(=O)c1cc(C(F)(F)F)cnc1-c1nc2cc(C3CC3C#N)cnc2n1C (stereo not drawn) [Compound P4, 2-[2-[3-ethylsulfonyl-5-(trifluoromethyl)-2-pyridyl]-3-methyl-imidazo[4,5-b]pyridin-6-yl]cyclopropanecarbonitrile]
≥ 80%: mortality at 200 ppm [11]

CCS(=O)(=O)c1cc(C(F)(F)F)cnc1-c1nc2cc(C3CC3)cnc2n1C [Compound P6]
≥ 80%: mortality at 24 ppm [2] | mortality at 200 ppm [3] | percent effect (mortality or growth inhibition) at 200 ppm [6] | mortality at 200 ppm [7] | percent effect (mortality or growth inhibition) at 200 ppm [12] | percent control (mortality, anti-feedancy or growth inhibition) at 12.5 ppm [8] | percent control (mortality, anti-feedant effect or growth inhibition) at 200 ppm [10]

CCS(=O)(=O)c1cc(C(F)(F)F)cnc1-c1nc2cc(C3CC3)cnc2n1C [Compound P1, 6-cyclopropyl-2-[3-ethylsulfonyl-5-(trifluoromethyl)-2-pyridyl]-3-methyl-imidazo[4,5-b]pyridine]
≥ 80%: mortality at 12 ppm [5]

CCS(=O)(=O)c1cc(C(F)(F)F)cnc1-c1nc2cc(C3(C#N)CCC3)cnc2n1C [Compound P3, 1-[2-[3-ethylsulfonyl-5-(trifluoromethyl)-2-pyridyl]-3-methyl-imidazo[4,5-b]pyridin-6-yl]cyclobutanecarbonitrile]
≥ 80%: mortality at 200 ppm [3]
